Assay results reported in patent US8192962B2, “Processes for detecting toxic substances” (Daikin Industries, Ltd., priority 2001, dated 2012).

System: Transport facilitation protein genes
Assay: DNA chip mRNA expression in yeast, transport facilitation protein genes (Table 5)
Type: cell-based, Saccharomyces cerevisiae S288C
Outline: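 Measured as treated-to-untreated fluorescence ratio on a full-genome yeast DNA chip. Cells (S288C, YPD, 25° C.) were exposed in log phase for two hours to one chemical, dosed to curb growth without killing.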

With `N#Cc1c(Cl)c(Cl)c(Cl)c(C#N)c1Cl` [(9), 2,4,5,6-tetrachloro-1,3-benzenedicarbonitrile] the “The level of expressed mRNA in the presence of chemical substance/The level of expressed mRNA in the absence of chemical substance” value (yeast gene YGR260W) was 0.3, the “The level of expressed mRNA in the presence of chemical substance/The level of expressed mRNA in the absence of chemical substance” value (yeast gene YGR281W) was 2.7 and the “The level of expressed mRNA in the presence of chemical substance/The level of expressed mRNA in the absence of chemical substance” value (yeast gene YHL035C) was 0.6. For the same compound, the “The level of expressed mRNA in the presence of chemical substance/The level of expressed mRNA in the absence of chemical substance” value (yeast gene YHL040C) was 1.1, the “The level of expressed mRNA in the presence of chemical substance/The level of expressed mRNA in the absence of chemical substance” value (yeast gene YHL047C) was 1.2 and the “The level of expressed mRNA in the presence of chemical substance/The level of expressed mRNA in the absence of chemical substance” value (yeast gene YHR026W) was 1.1. The “The level of expressed mRNA in the presence of chemical substance/The level of expressed mRNA in the absence of chemical substance” value (yeast gene YHR092C) was 0.2, the “The level of expressed mRNA in the presence of chemical substance/The level of expressed mRNA in the absence of chemical substance” value (yeast gene YHR094C) was 0.3 and the “The level of expressed mRNA in the presence of chemical substance/The level of expressed mRNA in the absence of chemical substance” value (yeast gene YHR175W) was 0.6. The “The level of expressed mRNA in the presence of chemical substance/The level of expressed mRNA in the absence of chemical substance” value (yeast gene YIL006W) was 0.9, the “The level of expressed mRNA in the presence of chemical substance/The level of expressed mRNA in the absence of chemical substance” value (yeast gene YIL022W) was 1.1 and the “The level of expressed mRNA in the presence of chemical substance/The level of expressed mRNA in the absence of chemical substance” value (yeast gene YIL056W) was 1.2. The “The level of expressed mRNA in the presence of chemical substance/The level of expressed mRNA in the absence of chemical substance” value (yeast gene YIL088C) was 1.0, the “The level of expressed mRNA in the presence of chemical substance/The level of expressed mRNA in the absence of chemical substance” value (yeast gene YJL034W) was 2.8 and the “The level of expressed mRNA in the presence of chemical substance/The level of expressed mRNA in the absence of chemical substance” value (yeast gene YJL212C) was 1.1. For the same compound, the “The level of expressed mRNA in the presence of chemical substance/The level of expressed mRNA in the absence of chemical substance” value (yeast gene YJL219W) was 4.0, the “The level of expressed mRNA in the presence of chemical substance/The level of expressed mRNA in the absence of chemical substance” value (yeast gene YJR077C) was 0.4 and the “The level of expressed mRNA in the presence of chemical substance/The level of expressed mRNA in the absence of chemical substance” value (yeast gene YJR106W) was 2.0. For the same compound, the “The level of expressed mRNA in the presence of chemical substance/The level of expressed mRNA in the absence of chemical substance” value (yeast gene YJR121W) was 0.8, the “The level of expressed mRNA in the presence of chemical substance/The level of expressed mRNA in the absence of chemical substance” value (yeast gene YKL016C) was 1.3 and the “The level of expressed mRNA in the presence of chemical substance/The level of expressed mRNA in the absence of chemical substance” value (yeast gene YKL146W) was 4.6. The “The level of expressed mRNA in the presence of chemical substance/The level of expressed mRNA in the absence of chemical substance” value (yeast gene YKR039W) was 1.9, the “The level of expressed mRNA in the presence of chemical substance/The level of expressed mRNA in the absence of chemical substance” value (yeast gene YKR067W) was 1.6 and the “The level of expressed mRNA in the presence of chemical substance/The level of expressed mRNA in the absence of chemical substance” value (yeast gene YKR105C) was 1.0. The “The level of expressed mRNA in the presence of chemical substance/The level of expressed mRNA in the absence of chemical substance” value (yeast gene YLL028W) was 1.2, the “The level of expressed mRNA in the presence of chemical substance/The level of expressed mRNA in the absence of chemical substance” value (yeast gene YLR081W) was 0.1 and the “The level of expressed mRNA in the presence of chemical substance/The level of expressed mRNA in the absence of chemical substance” value (yeast gene YLR295C) was 1.4. For the same compound, the “The level of expressed mRNA in the presence of chemical substance/The level of expressed mRNA in the absence of chemical substance” value (yeast gene YLR348C) was 2.1, the “The level of expressed mRNA in the presence of chemical substance/The level of expressed mRNA in the absence of chemical substance” value (yeast gene YLR378C) was 1.1 and the “The level of expressed mRNA in the presence of chemical substance/The level of expressed mRNA in the absence of chemical substance” value (yeast gene YMR011W) was 0.0. For the same compound, the “The level of expressed mRNA in the presence of chemical substance/The level of expressed mRNA in the absence of chemical substance” value (yeast gene YMR162C) was 0.7, the “The level of expressed mRNA in the presence of chemical substance/The level of expressed mRNA in the absence of chemical substance” value (yeast gene YMR203W) was 0.7 and the “The level of expressed mRNA in the presence of chemical substance/The level of expressed mRNA in the absence of chemical substance” value (yeast gene YNL055C) was 1.1. The “The level of expressed mRNA in the presence of chemical substance/The level of expressed mRNA in the absence of chemical substance” value (yeast gene YNL259C) was 1.6, the “The level of expressed mRNA in the presence of chemical substance/The level of expressed mRNA in the absence of chemical substance” value (yeast gene YNR072W) was 0.7 and the “The level of expressed mRNA in the presence of chemical substance/The level of expressed mRNA in the absence of chemical substance” value (yeast gene YOL119C) was 5.0. The “The level of expressed mRNA in the presence of chemical substance/The level of expressed mRNA in the absence of chemical substance” value (yeast gene YOL156W) was 2.3, the “The level of expressed mRNA in the presence of chemical substance/The level of expressed mRNA in the absence of chemical substance” value (yeast gene YOL163W) was 7.5 and the “The level of expressed mRNA in the presence of chemical substance/The level of expressed mRNA in the absence of chemical substance” value (yeast gene YOR035C) was 1.3. The “The level of expressed mRNA in the presence of chemical substance/The level of expressed mRNA in the absence of chemical substance” value (yeast gene YOR130C) was 2.0, the “The level of expressed mRNA in the presence of chemical substance/The level of expressed mRNA in the absence of chemical substance” value (yeast gene YOR153W) was 3.2 and the “The level of expressed mRNA in the presence of chemical substance/The level of expressed mRNA in the absence of chemical substance” value (yeast gene YOR270C) was 0.4. For the same compound, the “The level of expressed mRNA in the presence of chemical substance/The level of expressed mRNA in the absence of chemical substance” value (yeast gene YOR273C) was 0.6, the “The level of expressed mRNA in the presence of chemical substance/The level of expressed mRNA in the absence of chemical substance” value (yeast gene YOR316C) was 1.6 and the “The level of expressed mRNA in the presence of chemical substance/The level of expressed mRNA in the absence of chemical substance” value (yeast gene YOR332W) was 1.8. The “The level of expressed mRNA in the presence of chemical substance/The level of expressed mRNA in the absence of chemical substance” value (yeast gene YOR348C) was 0.5, the “The level of expressed mRNA in the presence of chemical substance/The level of expressed mRNA in the absence of chemical substance” value (yeast gene YPL036W) was 0.1 and the “The level of expressed mRNA in the presence of chemical substance/The level of expressed mRNA in the absence of chemical substance” value (yeast gene YPL134C) was 0.6. For the same compound, the “The level of expressed mRNA in the presence of chemical substance/The level of expressed mRNA in the absence of chemical substance” value (yeast gene YPL265W) was 0.2, the “The level of expressed mRNA in the presence of chemical substance/The level of expressed mRNA in the absence of chemical substance” value (yeast gene YPL271W) was 0.6 and the “The level of expressed mRNA in the presence of chemical substance/The level of expressed mRNA in the absence of chemical substance” value (yeast gene YPR192W) was 0.7. The “The level of expressed mRNA in the presence of chemical substance/The level of expressed mRNA in the absence of chemical substance” value (yeast gene YPR194C) was 0.5.
